{"source": "patent US6265537A", "about": "“Thiodepsipeptides for combating endoparasites and a method for producing the same” (Bayer Aktiengesellschaft, priority 1997, dated 2001)", "key": {"Haemonchus contortus": {"system": "Haemonchus contortus", "assay": "In vivo nematode test Haemonchus contortus/sheep", "conditions": "sheep infected with Haemonchus contortus; applied orally and/or intravenously as pure active compound; complete cessation of worm egg excretion with the faeces after treatment", "protocol": "Haemonchus contortus/Sheep Sheep which had been experimentally infected with Haemonchus contortus were treated after the prepotency time of the parasite had elapsed. The active compounds were applied orally and/or intravenously as pure active compound. The degree of effectiveness is determined by quantitatively counting the worm eggs which have been excreted with the faeces before and after the treatment. A complete cessation of egg excretion after the treatment means that the worms have been aborted or damaged to such an extent that they no longer produce eggs (dosis […]). Active compounds tested and effective dosage rates can be seen from the table which follows"}, "Heterakis spumosa": {"system": "Heterakis spumosa", "assay": "In vivo nematode test Heterakis spumosa/mouse", "conditions": "mice infected with Heterakis spumosa; dosage rate 50 mg/kg, applied orally and/or intraperitoneally on day 46 after infection; adult parasites in colon and caecum counted on day 54, compared with untreated control", "description": "Mice are experimentally infected with nematodes of the variety Heterakis spumosa. In order to infect the mice, 90 embryonate Heterakis spumosa eggs are applied orally.\nAfter the prepotency time had elapsed, the suspended active compounds are applied orally and/or intraperitoneally on the 46th day after the infection.\nThe mice are selected on the 54th day after the infection. The adult parasites in the colon and caecum are counted with the aid of a microscope. The treatment results in the doses group are compared with the untreated control group.\nActive compounds tested and effective dosage rates (dosis effectiva) can be seen from the table which follows."}}}
{"compound": "CC(C)CC1C(=O)OC(Cc2ccc(N3CCOCC3)cc2)C(=O)N(C)C(CC(C)C)C(=O)OC(C)C(=O)N(C)C(CC(C)C)C(=O)OC(Cc2ccc(N3CCOCC3)cc2)C(=O)N(C)C(CC(C)C)C(=O)OC(C)C(=O)N1C", "note": "[Cyclo(-MeLeu-D-Lac-MeLeu-D-4-MorPhLac-)2, cyclo(-N-methyl-L-leucyl-D-lactyl-N-methyl-L-leucyl-D-4-N-morpholino-phenyllactyl-N-methyl-L-leucyl-D-lactyl-N-methyl-L-leucyl-D-4-N-morpholinophenyllactyl-), reference compound]", "values": [{"measurement": "Effective dosage rates in [mg/kg] (dosis effectiva)", "setting": "Haemonchus contortus", "value": 0.05, "unit": "mg/kg"}]}
{"compound": "CC(C)C[C@H]1C(=O)O[C@H](Cc2ccccc2)C(=O)N(C)[C@@H](CC(C)C)C(=O)O[C@H](C)C(=O)N(C)[C@@H](CC(C)C)C(=O)O[C@H](Cc2ccccc2)C(=O)N(C)[C@@H](CC(C)C)C(=O)O[C@H](C)C(=O)N1C", "note": "[PF 1022A, cyclo(-N-methyl-L-leucyl-D-lactyl-N-methyl-L-leucyl-D-phenyllactyl-N-methyl-L-leucyl-D-lactyl-N-methyl-L-leucyl-D-phenyllactyl-), reference compound]", "values": [{"measurement": "Effective dosage rates in [mg/kg] (dosis effectiva)", "setting": "Haemonchus contortus", "value": 0.25, "unit": "mg/kg"}, {"measurement": "Reduction rate in [%]", "setting": "Heterakis spumosa", "value": 0, "unit": "%"}]}
{"compound": "Cyclo(-N-methyl-L-leucyl-D-thiolactyl-N-melhyl-L-leucyl-D-4-N-morpholinophenylthiiolactyl-N-methyl-L-leucyl-D-thiolactyl-N-methyl-L-leucyl-D-4-N-morpholinophenylthiolactyl-) [Example 3]", "values": [{"measurement": "Effective dosage rates in [mg/kg] (dosis effectiva)", "setting": "Haemonchus contortus", "value": 0.025, "unit": "mg/kg"}]}
{"compound": "Cyclo(-N-methyl-L-leucyl-D-thiolactyl-N-methyl-L-leucy-D-4-(pyrid-2-yl-methoxy)-phenylthiolactyl-N-methyl-L-leucy-D-thiolactyl-N-methyl-L-leucyl-D-4-(pyrid-2-yl-methoxy)-phenylthiolactyl-) [Example 6]", "values": [{"measurement": "Effective dosage rates in [mg/kg] (dosis effectiva)", "setting": "Haemonchus contortus", "value": 0.01, "unit": "mg/kg"}]}
{"compound": "Cyclo(-N-methyl-L-leucyl-D-thiolactyl-N-methyl-L-leucyl-D-4-(pyrid-2-yl-methoxy)-phenyllactyl-N-methyl-L-keucyl-D-lactyl-N-methyl-L-leucyl-D-4-(pyrid- 2-yl-methoxy)-phenyllactyl-) [Example 10]", "values": [{"measurement": "Effective dosage rates in [mg/kg] (dosis effectiva)", "setting": "Haemonchus contortus", "value": 0.01, "unit": "mg/kg"}]}
{"compound": "Cyclo(-N-methyl-L-leucyl-D-thiolactyl-N-methyl-L-leucyl-D-phenylthiolactyl- N-methyl-L-leucyl-D-thiolactyl-N-methyl-L-leucyl-D-phenylthiolactyl-) [Example 1]", "values": [{"measurement": "Effective dosage rates in [mg/kg] (dosis effectiva)", "setting": "Haemonchus contortus", "value": 0.10, "unit": "mg/kg"}, {"measurement": "Reduction rate in [%]", "setting": "Heterakis spumosa", "value": 100, "unit": "%"}]}
{"compound": "Cyclo(N-methyl-L-leucyl-D-thiolactyl-N-methyl-L-leucyl-D4-fur-2-yl-methoxy)-phenyllactyl-N-methyl-L-leucyl-D-lactyl-N-methyl-L-leucyl-D-phenyllactyl-) [Example 12]", "values": [{"measurement": "Effective dosage rates in [mg/kg] (dosis effectiva)", "setting": "Haemonchus contortus", "value": 0.01, "unit": "mg/kg"}]}
{"compound": "Cyclo(N-methyl-L-leucyl-D-thiolactyl-N-methyl-L-leucyl-D-4-N-morpholinophenyllactyl-N-methyl-L-leucyl-D-lactyl-N-methyl-L-leucyl-D-4-N-morpholinophenyllactyl-) [Example 8]", "values": [{"measurement": "Effective dosage rates in [mg/kg] (dosis effectiva)", "setting": "Haemonchus contortus", "value": 0.01, "unit": "mg/kg"}]}
{"compound": "Cyclo(N-methyl-L-leucyl-D-thiolactyl-N-methyl-L-leucyl-D-phenyllactyl-N-methyl-L-leucyl-D-lactyl-N-methyl-L-leucyl-D-phenyllactyl-) [Example 7]", "values": [{"measurement": "Effective dosage rates in [mg/kg] (dosis effectiva)", "setting": "Haemonchus contortus", "value": 0.01, "unit": "mg/kg"}]}
